# Test results taken from BindingDB's records for doi:10.1021/jm010087e (The University of Western Australia, 2001).
# Test: Inhibitory activity against clostridium histolyticum collagenase
row,SMILES,Ki
1,"CC(C(=O)NO)N(Cc1ccccc1[N+](=O)[O-])C(=O)Nc1ccc(F)cc1F (stereo not given) [2-[3-(2,4-Difluoro-phenyl)-1-(2-nitro-benzyl)-ureido]-N-hydroxy-propionamide]",12 nM
2,CC(C(=O)NO)N(Cc1ccccc1[N+](=O)[O-])S(=O)(=O)C(F)(F)F (stereo not given) [N-Hydroxy-2-[(2-nitro-benzyl)-trifluoromethanesulfonyl-amino]-propionamide],70 nM
3,CC(C(=O)O)N(Cc1ccccc1[N+](=O)[O-])S(=O)(=O)c1ccc(NC(=O)OC(C)(C)C)cc1 (stereo not given) [2-[(4-tert-Butoxycarbonylamino-benzenesulfonyl)-(2-nitro-benzyl)-amino]-propionic acid],2600 nM
4,CC(C(=O)O)N(Cc1ccccc1[N+](=O)[O-])S(=O)(=O)c1cccc2ccccc12 (stereo not given) [2-[(Naphthalene-1-sulfonyl)-(2-nitro-benzyl)-amino]-propionic acid],1600 nM
5,"CC(C(=O)O)N(Cc1ccccc1[N+](=O)[O-])C(=O)Nc1ccc(F)cc1F (stereo not given) [2-[3-(2,4-Difluoro-phenyl)-1-(2-nitro-benzyl)-ureido]-propionic acid]",6500 nM
6,Cc1ccccc1S(=O)(=O)NC(=O)N(Cc1ccccc1[N+](=O)[O-])C(C)C(=O)O (stereo not given) [2-[({[(2-methylphenyl)sulfonyl]amino}carbonyl)(2-nitrobenzyl)amino]propanoic acid],3000 nM
7,CC(C(=O)NO)N(Cc1ccccc1[N+](=O)[O-])C(=S)NC(=O)c1ccccc1 (stereo not given) [2-[3-Benzoyl-1-(2-nitro-benzyl)-thioureido]-N-hydroxy-propionamide],8 nM
8,CC(C(=O)O)N(Cc1ccccc1[N+](=O)[O-])S(=O)(=O)C(F)(F)C(F)(F)C(F)(F)C(F)(F)F (stereo not given) [2-[(2-Nitro-benzyl)-(nonafluorobutane-1-sulfonyl)-amino]-propionic acid],2100 nM
9,CC(C(=O)NO)N(Cc1ccccc1[N+](=O)[O-])S(=O)(=O)c1cccc(NC(=O)OC(C)(C)C)c1 (stereo not given) [{3-[(1-Hydroxycarbamoyl-ethyl)-(2-nitro-benzyl)-sulfamoyl]-phenyl}-carbamic acid tert-butyl ester],8 nM
10,"CC(C(=O)O)N(Cc1ccccc1[N+](=O)[O-])C(=O)Nc1ccc(Cl)c(Cl)c1 (stereo not given) [2-[3-(3,4-Dichloro-phenyl)-1-(2-nitro-benzyl)-ureido]-propionic acid]",5300 nM
11,CC(C(=O)NO)N(Cc1ccccc1[N+](=O)[O-])S(=O)(=O)c1ccc(Br)cc1 (stereo not given) [2-[(4-Bromo-benzenesulfonyl)-(2-nitro-benzyl)-amino]-N-hydroxy-propionamide],33 nM
12,CC(C(=O)O)N(Cc1ccccc1[N+](=O)[O-])S(=O)(=O)c1ccc(C(=O)O)cc1 (stereo not given) [4-[(1-Carboxy-ethyl)-(2-nitro-benzyl)-sulfamoyl]-benzoic acid],1900 nM
13,"Cc1cc(C)c(S(=O)(=O)N(Cc2ccccc2[N+](=O)[O-])C(C)C(=O)NO)c(C)c1 (stereo not given) [N-Hydroxy-2-[(2-nitro-benzyl)-(2,4,6-trimethyl-benzenesulfonyl)-amino]-propionamide]",21 nM
14,COc1ccc(S(=O)(=O)N(Cc2ccccc2[N+](=O)[O-])C(C)C(=O)O)cc1 (stereo not given) [2-[(4-Methoxy-benzenesulfonyl)-(2-nitro-benzyl)-amino]-propionic acid],5700 nM
15,CC(C(=O)O)N(Cc1ccccc1[N+](=O)[O-])S(=O)(=O)c1cccc(C(=O)O)c1 (stereo not given) [3-[(1-Carboxy-ethyl)-(2-nitro-benzyl)-sulfamoyl]-benzoic acid],2100 nM
16,CC(C(=O)NO)N(Cc1ccccc1[N+](=O)[O-])S(=O)(=O)c1cccc2c(N(C)C)cccc12 (stereo not given) [2-[(5-Dimethylamino-naphthalene-1-sulfonyl)-(2-nitro-benzyl)-amino]-N-hydroxy-propionamide],9 nM
17,CC(C(=O)O)N(Cc1ccccc1[N+](=O)[O-])C(=O)Nc1ccc(Cl)cc1 (stereo not given) [2-[3-(4-Chloro-phenyl)-1-(2-nitro-benzyl)-ureido]-propionic acid],6800 nM
18,Cc1ccc(S(=O)(=O)N(Cc2ccccc2[N+](=O)[O-])C(C)C(=O)NO)cc1 (stereo not given) [N-Hydroxy-2-[(2-nitro-benzyl)-(toluene-4-sulfonyl)-amino]-propionamide],41 nM
19,CC(=O)c1ccc(S(=O)(=O)N(Cc2ccccc2[N+](=O)[O-])C(C)C(=O)O)cc1 (stereo not given) [2-[(4-Acetyl-benzenesulfonyl)-(2-nitro-benzyl)-amino]-propionic acid],2000 nM
20,CC(C(=O)NO)N(Cc1ccccc1[N+](=O)[O-])S(=O)(=O)c1ccccc1[N+](=O)[O-] (stereo not given) [N-Hydroxy-2-[(2-nitro-benzenesulfonyl)-(2-nitro-benzyl)-amino]-propionamide],11 nM
21,CC(C(=O)O)N(Cc1ccccc1[N+](=O)[O-])Sc1ccccc1[N+](=O)[O-] (stereo not given) [2-[(2-Nitro-benzyl)-(2-nitro-phenylsulfanyl)-amino]-propionic acid],6200 nM
22,CC(C(=O)O)N(Cc1ccccc1[N+](=O)[O-])S(=O)(=O)c1c(F)c(F)c(F)c(F)c1F (stereo not given) [2-[(2-Nitro-benzyl)-pentafluorobenzenesulfonyl-amino]-propionic acid],300 nM
23,"CC(C(=O)NO)N(Cc1ccccc1[N+](=O)[O-])S(=O)(=O)c1cc(Cl)ccc1Cl (stereo not given) [2-[(2,5-Dichloro-benzenesulfonyl)-(2-nitro-benzyl)-amino]-N-hydroxy-propionamide]",14 nM

row,SMILES,Ki
1,CC(C(=O)NO)N(Cc1ccccc1[N+](=O)[O-])S(=O)(=O)c1ccccc1 (stereo not given) [2-[Benzenesulfonyl-(2-nitro-benzyl)-amino]-N-hydroxy-propionamide],59 nM
2,CC(C(=O)O)N(Cc1ccccc1[N+](=O)[O-])S(=O)(=O)N(C)C (stereo not given) [2-[[(dimethylamino)sulfonyl](2-nitrobenzyl)amino]propanoic acid],43000 nM
3,CC(C(=O)NO)N(Cc1ccccc1[N+](=O)[O-])Sc1ccccc1[N+](=O)[O-] (stereo not given) [N-Hydroxy-2-[(2-nitro-benzyl)-(2-nitro-phenylsulfanyl)-amino]-propionamide],12 nM
4,CC(C(=O)NO)N(Cc1ccccc1[N+](=O)[O-])S(=O)(=O)c1ccc([N+](=O)[O-])c(Cl)c1 (stereo not given) [2-[(3-Chloro-4-nitro-benzenesulfonyl)-(2-nitro-benzyl)-amino]-N-hydroxy-propionamide],9 nM
5,CC(C(=O)O)N(Cc1ccccc1[N+](=O)[O-])S(=O)(=O)c1ccc2ccccc2c1 (stereo not given) [2-[(Naphthalene-2-sulfonyl)-(2-nitro-benzyl)-amino]-propionic acid],1800 nM
6,CC(C(=O)NO)N(Cc1ccccc1[N+](=O)[O-])Sc1ccc([N+](=O)[O-])cc1 (stereo not given) [N-Hydroxy-2-[(2-nitro-benzyl)-(4-nitro-phenylsulfanyl)-amino]-propionamide],13 nM
7,CC(C(=O)NO)N(Cc1ccccc1[N+](=O)[O-])C(=O)Nc1ccc(Cl)cc1 (stereo not given) [2-[3-(4-Chloro-phenyl)-1-(2-nitro-benzyl)-ureido]-N-hydroxy-propionamide],19 nM
8,CC(C(=O)NO)N(Cc1ccccc1[N+](=O)[O-])S(=O)(=O)c1ccc(C(=O)O)cc1 (stereo not given) [4-[(1-Hydroxycarbamoyl-ethyl)-(2-nitro-benzyl)-sulfamoyl]-benzoic acid],7 nM
9,"CC(C(=O)NO)N(Cc1ccccc1[N+](=O)[O-])C(=O)Nc1ccc(Cl)c(Cl)c1 (stereo not given) [2-[3-(3,4-Dichloro-phenyl)-1-(2-nitro-benzyl)-ureido]-N-hydroxy-propionamide]",14 nM
10,CC(C(=O)NO)N(Cc1ccccc1[N+](=O)[O-])C(=O)NS(=O)(=O)c1ccccc1 (stereo not given) [N-hydroxy-2-((2-nitrobenzyl){[(phenylsulfonyl)amino]carbonyl}amino)propanamide],12 nM
11,CC(C(=O)O)N(Cc1ccccc1[N+](=O)[O-])C(=O)Nc1cccc(Cl)c1 (stereo not given) [2-[3-(3-Chloro-phenyl)-1-(2-nitro-benzyl)-ureido]-propionic acid],6600 nM
12,CC(C(=O)O)N(Cc1ccccc1[N+](=O)[O-])S(=O)(=O)c1cccc([N+](=O)[O-])c1 (stereo not given) [2-[(3-Nitro-benzenesulfonyl)-(2-nitro-benzyl)-amino]-propionic acid],5200 nM
13,CC(C(=O)O)N(Cc1ccccc1[N+](=O)[O-])C(=O)NS(=O)(=O)c1ccc(F)cc1 (stereo not given) [2-[({[(4-fluorophenyl)sulfonyl]amino}carbonyl)(2-nitrobenzyl)amino]propanoic acid],3000 nM
14,CC(C(=O)NO)N(Cc1ccccc1[N+](=O)[O-])S(=O)(=O)C(F)(F)C(F)(F)C(F)(F)C(F)(F)F (stereo not given) [N-Hydroxy-2-[(2-nitro-benzyl)-(nonafluorobutane-1-sulfonyl)-amino]-propionamide],10 nM
15,CC(C(=O)NO)N(Cc1ccccc1[N+](=O)[O-])S(=O)(=O)C(F)(F)C(F)(F)C(F)(F)C(F)(F)C(F)(F)C(F)(F)C(F)(F)C(F)(F)F (stereo not given) [2-[(Heptadecafluorooctane-1-sulfonyl)-(2-nitro-benzyl)-amino]-N-hydroxy-propionamide],8 nM
16,CC(C(=O)O)N(Cc1ccccc1[N+](=O)[O-])Sc1ccc([N+](=O)[O-])cc1 (stereo not given) [2-[(2-Nitro-benzyl)-(4-nitro-phenylsulfanyl)-amino]-propionic acid],6000 nM
17,CC(C(=O)NO)N(Cc1ccccc1[N+](=O)[O-])S(=O)(=O)c1ccc(NC(=O)OC(C)(C)C)cc1 (stereo not given) [{4-[(1-Hydroxycarbamoyl-ethyl)-(2-nitro-benzyl)-sulfamoyl]-phenyl}-carbamic acid tert-butyl ester],9 nM
18,CC(C(=O)NO)N(Cc1ccccc1[N+](=O)[O-])S(C)(=O)=O (stereo not given) [N-Hydroxy-2-[methanesulfonyl-(2-nitro-benzyl)-amino]-propionamide],86 nM
19,CC(C(=O)O)N(Cc1ccccc1[N+](=O)[O-])S(=O)(=O)c1cccc2c(N(C)C)cccc12 (stereo not given) [2-[(5-Dimethylamino-naphthalene-1-sulfonyl)-(2-nitro-benzyl)-amino]-propionic acid],2100 nM
20,CC(C(=O)O)N(Cc1ccccc1[N+](=O)[O-])C(=O)NS(=O)(=O)c1ccc(Cl)cc1 (stereo not given) [2-[({[(4-chlorophenyl)sulfonyl]amino}carbonyl)(2-nitrobenzyl)amino]propanoic acid],2700 nM
21,CC(C(=O)O)N(Cc1ccccc1[N+](=O)[O-])S(=O)(=O)C(Cl)(Cl)Cl (stereo not given) [2-[(2-Nitro-benzyl)-trichloromethanesulfonyl-amino]-propionic acid],5000 nM
22,CC(=O)Nc1ccc(S(=O)(=O)N(Cc2ccccc2[N+](=O)[O-])C(C)C(=O)NO)cc1 (stereo not given) [2-[(4-Acetylamino-benzenesulfonyl)-(2-nitro-benzyl)-amino]-N-hydroxy-propionamide],12 nM
